“Also recorded” adds a separate entry of the source. Where two headings read alike, the source gives them in different places.
Tests used:
[1] = Total Radical-trapping Anti-oxidant Parameter assay (TRAP assay); set-up: key to TRAP: active as an antioxidant (+); settings: for TRAP: antioxidant activity; for activity in the TRAP assay: compared with curcumin
Method: This assay is also known as the Total radical-trapping anti-oxidant parameter assay (TRAP assay). For the TRAP assay (Re et al., Free Rad. Biol. […] The turquoise colored reaction was allowed to stabilize for 5 min and the absorbance monitored on a Perkin Elmer UV/Vis Lambda 2S. […] The following FIGS. 2A-2C) show the analogs active in the TRAP assay.

[2] = Ferric Reducing/Anti-oxidant Power assay (FRAP assay); set-up: key to FRAP: active as an antioxidant (+); settings: for FRAP: antioxidant activity; for activity in the FRAP assay: compared with curcumin
Method: Anti-oxidant activity was also measured in the Ferric reducing/anti-oxidant power assay (FRAP assay) in which the analogs are reacted with a ferric tripyridyltriazine complex. For the FRAP assay (Benzie et al., Meth. Enzymol. 1999, 299, 15-27), the ferric complex was prepared at room temperature by reaction of ferric chloride (16.7 mM) and 2,4,6-tripyridyl-s-triazine (8.33 mM) in acetate buffer (0.25 M) to pH 3.6. The FRAP reagent was used immediately after preparation. […] The reaction was mixed by vortexing, allowed to stabilize for 5 min and the absorbance recorded on a Perkin Elmer UV/Vis Lambda 2S. […] The synthetic analog of α-tocopherol (vitamin E), Trolox, was used as a reference standard (10 μM in ethanol).
The second assay used, the FRAP assay, determines the analogs abilities to reduce a Fe(III) tripyridyltriazine complex to a Fe(II) tripyridyltriazine complex. The following FIGS. 3A-3C) show analogs active in the FRAP assay.

[3] = test system: NF-κB; assay: NF-κB luciferase reporter cellular assay (293T/NF-κB-luc, TNFα-stimulated); assay type: cell-based, human; settings: for IC50: Homo sapiens, HEK-293T; for inhibition of the activation of NF-κB by TNFα (screen): 10 μM, compared with curcumin
Method: The cell line is derived from human 293T embryonic kidney cells expressing the large T antigen containing a chromosomal integration of a luciferase reporter construct regulated by 6 copies of the NF-κB response element (Panomics, Inc.). This stable clonal cell line is obtained by co-transfection of pNF-κB-luc and pTK-hyg containing plasmids followed by the addition of hygromycin (200 μg/ml) to maintain cell selection.
The cell line was grown in a humidified atmosphere at 37° C. in 5% CO2/95% air and maintained in Dulbecco's Modified Eagle's Medium (DMEM-high glucose containing 4 mM glutamine) containing fetal bovine serum (FBS, 10%), sodium pyruvate (1 mM), penicillin (100 units/ml), streptomycin (100 μg/ml) and hygromycin (100 μg/m) to maintain cell selection (Gibco/Invitrogen).
The 293T/NF-κB-luc cells were re-plated 24 hr prior to treatment, into 24-well cell culture plates in media without hygromycin, to prevent it from interfering with the assay. The cells were then allowed to grow and attach, to the wells, for 24 hr in a humidified atmosphere at 37° C. in 5% CO2/95% air. […] The cells then were placed again in a humidified atmosphere at 37° C. in 5% CO2/95% air for 7 hr. Plate wells were gently washed with PBS, pH 7.4, and lysed with passive lysis buffer (1×, 100 μl, Promega). The subsequent chemiluminescent lysates were analyzed with the Luciferase Assay System (Promega) utilizing a TD-20/20 luminometer. The relative light units (photons) were determined by the addition of firefly luciferase substrate (75 μl) to cell lysate (10 μl). The light units were then normalized to the amount of protein in the well (mg/ml) with BCA™ Protein Assay Kit (Pierce) and standardized to percent of control (TNFα).
This assay utilized a commercially available cell line (Panomics 293T-luc cellular assay) developed for screening inhibitors of NF-κB. This cell line is stably transfected with a luciferase reporter controlled by an NF-κB dependent promoter. The cell is stimulated with tumor necrosis factor alpha (TNFα) which activates NF-κB. NF-κB then binds to one of six promoter regions on the cell's DNA leading to the production of a luciferase enzyme. Luciferin is added to the cell lysates and the luciferase enzyme catalyzes a cleavage of luciferin leading to the emission of light.
This cell line was developed by Panomics for screening potential inhibitors of NF-κB. Cells are stimulated with TNF-α to express luciferase, whose activity is monitored in a chemiluminometer.
An NF-κB reporter stable cell line from human 293T embryonic kidney cells (293T/NFκB-luc) (Panomics) was grown in a humidified atmosphere at 37° C. in 5% CO2/95% air. The cells were maintained in Dulbecco's Modified Eagle's Medium (DMEM—high glucose containing 4 mM glutamine) supplemented with 10% fetal bovine serum (FBS), 1 mM sodium pyruvate, 100 units/ml penicillin, 100 μg/m streptomycin and 100 μg/ml hygromycin (Gibco/Invitrogen, Carlsbad, Calif.)) to maintain cell selection. One day prior to treatment, the 293T/NFκB-luc cells were plated into 24-well cell culture plates (Costar) at approximately 70% confluency in the above media without hygromycin. The following day cells were fed fresh media 1 hour prior to treatment. […] The cells were placed again in a humidified atmosphere at 37° C. in 5% CO2/95% air for 7 hours. Plate wells were gently washed with phosphate buffered saline, pH 7.4, and lysed with 1× passive lysis buffer (Promega). The subsequent lysates were analyzed with the Luciferase Assay System (Promega) utilizing a TD-20/20 luminometer (Turner Designs). The firefly luciferase relative light units were normalized to protein (mg/ml) with BCATM Protein Assay Kit (Pierce) and standardized to TNF-α control.

[4] = test system: AP-1; assay: AP-1 luciferase reporter cellular assay (293/AP1-luc, PMA-stimulated); assay type: cell-based, human; settings: for activity in the AP-1 cellular assay (screen): 15 μM, compared with curcumin; for IC50: Homo sapiens
Method: This cell line is obtained by co-transfection of pAP1-luc and pTK-hyg containing plasmids followed by the addition of hygromycin (200 μg/ml) to maintain cell selection.
After 24 hr, the cells had reached approximately 60% confluency. […] Plate wells were gently washed with PBS, pH 7.4, and lysed with passive lysis buffer (1×, 100 μl, Promega). The subsequent chemiluminescent lysates were analyzed with the Luciferase Assay System (Promega) utilizing a TD-20/20 luminometer. The relative light units (photons) were determined by the addition of firefly luciferase substrate (75 μl) to cell lysate (10 μl). The light units were then normalized to the amount of protein in the well (mg/ml) with BCA™ Protein Assay Kit (Pierce) and standardized to percent of control (PMA).
This cell line is stably transfected with a luciferase reporter controlled by an AP-1 dependent promoter. The cell is stimulated with phorbol ester which activates AP-1. AP-1 then binds to one of three promoter regions on the cells DNA leading to the production of a luciferase enzyme. Luciferin is added to the cell lysates and the luciferase enzyme catalyzes a cleavage of luciferin leading to the emission of light.

[5] = inhibition of TNFα-induced NF-κB activation, Table 10, read-out: NF-κB IC50
[6] = inhibition of PMA-induced AP-1 activation, 293/AP1-luc cells, Table 10, read-out: AP-1 IC50
[7] = inhibition of TNFα-induced NF-κB activation, 293T/NF-κB-luc cells, Table 5, read-out: IC50
[8] = inhibition of TNF-α-induced NF-κB activation, Panomics 293T/NFκB-luc, second Table 12, read-out: IC50

COc1cc(/C=C/C(=O)/C=C(O)/C=C/c2ccc(O)c(OC)c2)ccc1O [3a]
TRAP ([1]; Table 10): + | FRAP ([2]; Table 10): + | IC50 [3, 5]: 8.2 µM

COc1ccc(/C=C/C(=O)/C=C(O)/C=C/c2ccc(OC)c(O)c2)cc1O [3h]
activity in the TRAP assay ([1]; 10 μM in ethanol): more active than curcumin

COc1cc(/C=C/C(=O)/C(C)=C(O)/C=C/c2ccc(O)c(OC)c2)ccc1O [6a]
TRAP ([1]; 10 μM in ethanol, Table 5): + | TRAP ([1]; Table 10): + | activity in the AP-1 cellular assay (screen) [4]: more active than curcumin | IC50 [4, 6]: 6 µM | FRAP ([2]; 10 μM in ethanol, Table 5): + | FRAP ([2]; Table 10): + | inhibition of the activation of NF-κB by TNFα (screen) [3]: more active than curcumin | IC50 [3, 7]: 6.8 µM | IC50 [3, 5]: 6.7 µM

COc1cc(/C=C/C(=O)/C(Cc2ccccc2)=C(O)/C=C/c2ccc(O)c(OC)c2)ccc1O [9a]
TRAP ([1]; 10 μM in ethanol, Table 5): + | TRAP ([1]; Table 10): + | activity in the AP-1 cellular assay (screen) [4]: more active than curcumin | IC50 [4, 6]: 5.3 µM | FRAP ([2]; 10 μM in ethanol, Table 5): + | FRAP ([2]; Table 10): + | inhibition of the activation of NF-κB by TNFα (screen) [3]: more active than curcumin | IC50 [3, 7]: 7.6 µM | IC50 [3, 5]: 7.6 µM

COc1cc(CCC(=O)/C=C(\O)CCc2ccc(O)c(OC)c2)ccc1O [13a]
activity in the TRAP assay ([1]; 10 μM in ethanol): more active than curcumin | activity in the FRAP assay ([2]; 10 μM in ethanol): potent antioxidant activity

COc1cc(CCC(=O)C(C)=C(O)CCc2ccc(O)c(OC)c2)ccc1O [14a]
activity in the TRAP assay ([1]; 10 μM in ethanol): more active than curcumin | inhibition of the activation of NF-κB by TNFα (screen) [3]: more active than curcumin

COc1cc(CCC(=O)C(Cc2ccccc2)=C(O)CCc2ccc(O)c(OC)c2)ccc1O [15a]
activity in the TRAP assay ([1]; 10 μM in ethanol): more active than curcumin

COc1cc(/C=C/C(=O)/C=C/c2ccc(O)c(OC)c2)ccc1O [20a]
inhibition of the activation of NF-κB by TNFα (screen) [3]: more active than curcumin

O=C(/C=C/c1ccc(O)c(O)c1)/C=C/c1ccc(O)c(O)c1 [20af]
activity in the TRAP assay ([1]; 10 μM in ethanol): more active than curcumin | activity in the FRAP assay ([2]; 10 μM in ethanol): more active than curcumin

COc1cc(/C=C/C(=O)/C=C/c2ccc(OC(C)=O)c(OC)c2)ccc1OC(C)=O [20ag]
activity in the AP-1 cellular assay (screen) [4]: more active than curcumin | IC50 [4, 6]: 8.3 µM | FRAP ([2]; 10 μM in ethanol, Table 5): + | FRAP ([2]; Table 10): + | inhibition of the activation of NF-κB by TNFα (screen) [3]: more active than curcumin | IC50 [3, 7]: 5.4 µM | IC50 [3, 5]: 5.4 µM

COc1ccccc1/C=C/C(=O)/C=C/c1ccccc1OC [20c]
activity in the AP-1 cellular assay (screen) [4]: more active than curcumin

COc1cccc(/C=C/C(=O)/C=C/c2cccc(OC)c2OC)c1OC [20d]
activity in the AP-1 cellular assay (screen) [4]: more active than curcumin

COc1cccc(OC)c1/C=C/C(=O)/C=C/c1c(OC)cccc1OC [20l]
activity in the AP-1 cellular assay (screen) [4]: more active than curcumin

COc1ccc(OC)c(/C=C/C(=O)/C=C/c2cc(OC)ccc2OC)c1 [20m]
activity in the AP-1 cellular assay (screen) [4]: more active than curcumin | IC50 [4, 6]: 1.4 µM | inhibition of the activation of NF-κB by TNFα (screen) [3]: more active than curcumin | IC50 [3, 7]: 6.4 µM | IC50 [3, 5]: 6.4 µM

COc1cc(/C=C/C(=O)/C=C/c2cc(OC)cc(OC)c2)cc(OC)c1 [20o]
activity in the AP-1 cellular assay (screen) [4]: more active than curcumin | inhibition of the activation of NF-κB by TNFα (screen) [3]: more active than curcumin

O=C(/C=C/c1ccccc1O)/C=C/c1ccccc1O [20q]
activity in the TRAP assay ([1]; 10 μM in ethanol): more active than curcumin | TRAP ([1]; 10 μM in ethanol, Table 5): + | TRAP ([1]; Table 10): + | activity in the AP-1 cellular assay (screen) [4]: more active than curcumin | IC50 [4, 6]: 11.7 µM | inhibition of the activation of NF-κB by TNFα (screen) [3]: more active than curcumin

O=C(/C=C/c1cccc(C(F)(F)F)c1)/C=C/c1cccc(C(F)(F)F)c1 [20v]
inhibition of the activation of NF-κB by TNFα (screen) [3]: more active than curcumin

O=C(/C=C/c1ccccc1C(F)(F)F)/C=C/c1ccccc1C(F)(F)F [20w]
activity in the AP-1 cellular assay (screen) [4]: more active than curcumin | inhibition of the activation of NF-κB by TNFα (screen) [3]: more active than curcumin

COc1cc(/C=C/C(C)=O)ccc1O [35a]
activity in the FRAP assay ([2]; 10 μM in ethanol): active | inhibition of the activation of NF-κB by TNFα (screen) [3]: more active than curcumin

CC(=O)C=Cc1ccccc1O [35q]
activity in the AP-1 cellular assay (screen) [4]: Active

COc1cc(/C=C2\CCC/C(=C\c3ccc(O)c(OC)c3)C2=O)ccc1O [38a]
TRAP ([1]; 10 μM in ethanol, Table 5): + | TRAP ([1]; Table 10): + | activity in the AP-1 cellular assay (screen) [4]: more active than curcumin | IC50 ([4]; AP1, read-out: AP-1 IC50 (μM)): 7.3 µM | FRAP ([2]; 10 μM in ethanol, Table 5): + | FRAP ([2]; Table 10): +

O=C(C1OC1c1ccccc1)C1OC1c1ccccc1 (stereo not drawn) [42b]
inhibition of the activation of NF-κB by TNFα (screen) [3]: activity comparable to curcumin

O=C(O)c1ccc(C(=O)/C=C/c2ccccc2)cc1 [46ad]
activity in the AP-1 cellular assay (screen) [4]: Active | activity in the FRAP assay ([2]; 10 μM in ethanol): active

N#Cc1ccc(C(=O)/C=C/c2ccccc2)cc1 [46al]
activity in the AP-1 cellular assay (screen) [4]: Active

COc1cc(/C=C/C(=O)c2ccccc2)ccc1O [48a]
activity in the AP-1 cellular assay (screen) [4]: most active | activity in the FRAP assay ([2]; 10 μM in ethanol): active

CN1C(c2ccccc2)CC(=O)CC1c1ccccc1 (stereo not drawn) [52b]
inhibition of the activation of NF-κB by TNFα (screen) [3]: more active than curcumin; also recorded: activity comparable to curcumin

COc1cc(/C=C/C(=O)/C(C)=C(O)/C=C/c2ccc(O)c(OC)c2)ccc1O [Compound 2]
IC50 [3, 8]: 6.7 ± 1.2 µM

O=C(/C=C/c1cccnc1)/C=C/c1cccnc1 [Compound 3]
IC50 [3, 8]: 3.4 ± 0.2 µM

O=C(/C=C/c1ccccc1C(F)(F)F)/C=C/c1ccccc1C(F)(F)F [Compound 5]
IC50 [3, 8]: 5 ± 0.3 µM

From patent US9187397B2 (STC.UNM, priority 2004, dated 2015)
